Data as given in the supplement of paper PMC11061612.

Experiments:
Test in all cases: Bliss excess, mean over the matrix (fraction); higher = more synergy
[1] = system: RKN (Other Solid Carcinomas)
In short: (§1)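 After 24 hours at 37°C and 5% CO2 in 1536-well plates, cells in DMEM/F12 or RPMI plus 10% FBS received two-drug dose matrices for 72 hours. Viability came from CellTiter-Glo 2.0 luminescence and was scaled as inhibition, anchored at 0 by vehicle wells and at 1 by blank wells. Combination Emax is taken as the second-highest inhibition in the matrix, and Bliss excess as the observed combination effect less EA + EB − EA·EB, with EA and EB the single-agent effects.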

NB12 (Neuroblastoma) = system: NB12 (Neuroblastoma)
In short: as §1

[2] = system: SHP-77 (Small Cell Lung Carcinoma)
In short: as §1

[3] = system: RCM-1 (Colorectal Carcinoma)
In short: as §1

[4] = system: VAL (B-Cell Non-Hodgkin's Lymphoma)
In short: as §1

[5] = system: SK-PN-DW (Other Solid Carcinomas)
In short: as §1

[6] = system: REH (B-Lymphoblastic Leukemia)
In short: as §1

[7] = system: OPM-2 (Plasma Cell Myeloma)
In short: as §1

[8] = system: OVMIU (Ovarian Carcinoma)
In short: as §1

[9] = system: COLO-680N (Esophageal Squamous Cell Carcinoma)
In short: as §1

[10] = system: PSN1 (Pancreatic Carcinoma)
In short: as §1

[11] = system: PANC-03-27 (Pancreatic Carcinoma)
In short: as §1

SF539 (Glioblastoma) = system: SF539 (Glioblastoma)
In short: as §1

[12] = system: CAL-62 (Thyroid Gland Carcinoma)
In short: as §1

[13] = system: MKN45 (Gastric Carcinoma)
In short: as §1

[14] = system: MFE-280 (Endometrial Carcinoma)
In short: as §1

[15] = system: TE-8 (Esophageal Squamous Cell Carcinoma)
In short: as §1

[16] = system: HSC-39 (Gastric Carcinoma)
In short: as §1

[17] = system: PC-3_[JPC-3] (Lung Adenocarcinoma)
In short: as §1

[18] = system: LK-2 (Squamous Cell Lung Carcinoma)
In short: as §1

| Structure (SMILES) | Bliss excess [1] | Bliss excess (NB12 (Neuroblastoma)) | Bliss excess [2] | Bliss excess [3] | Bliss excess [4] | Bliss excess [5] | Bliss excess [6] | Bliss excess [7] | Bliss excess [8] | Bliss excess [9] | Bliss excess [10] | Bliss excess [11] | Bliss excess (SF539 (Glioblastoma)) | Bliss excess [12] | Bliss excess [13] | Bliss excess [14] | Bliss excess [15] | Bliss excess [16] | Bliss excess [17] | Bliss excess [18] |
| --- | --- | --- | --- | --- | --- | --- | --- | --- | --- | --- | --- | --- | --- | --- | --- | --- | --- | --- | --- | --- |
| C=CCn1c(=O)c2cnc(Nc3ccc(N4CCN(C)CC4)cc3)nc2n1-c1cccc(C(C)(C)O)n1 [AZD1775] + CCc1c2c(nc3ccc(O)cc13)-c1cc3c(c(=O)n1C2)COC(=O)[C@]3(O)CC [SN-38] (first compound max 1 µM, partner max 0.3 µM) | 0.0378 | -0.0514 | -0.0315 | -0.0402 | -0.0619 | -0.0903 | -0.0887 | 0.0117 | -0.055 | -0.0066 | -0.0499 | -0.0585 | -0.0037 | -0.0489 | -0.0893 | -0.0149 | 0.0659 | -0.0065 | -0.0575 | 0.0768 |
| C=CCn1c(=O)c2cnc(Nc3ccc(N4CCN(C)CC4)cc3)nc2n1-c1cccc(C(C)(C)O)n1 [AZD1775] + Nc1ccn([C@@H]2O[C@H](CO)[C@@H](O)C2(F)F)c(=O)n1 [Gemcitabine] (first compound max 1 µM, partner max 0.3 µM) | 0.0082 | 0.0471 | 0.0032 | 0.0233 |  | -0.0347 | -0.0139 | 0.0255 | -0.025 | 0.0195 | 0.0451 | -0.0383 | 0.0282 | -0.0162 | -0.116 | -0.0175 | -0.0247 | 0.0379 | -0.035 | 0.117 |
| CN(CCO)CC[C@H](CSc1ccccc1)Nc1ccc(S(=O)(=O)NC(=O)c2ccc(N3CCC([C@@H](O)c4ccccc4-c4ccc(Cl)cc4)CC3)cc2)cc1S(=O)(=O)C(F)(F)F [AZD4320] + CC(=O)O[C@H]1C(=O)[C@@]2(C)[C@H]([C@H](OC(=O)c3ccccc3)[C@]3(O)C[C@H](OC(=O)[C@H](O)[C@@H](NC(=O)c4ccccc4)c4ccccc4)C(C)=C1C3(C)C)[C@]1(OC(C)=O)CO[C@@H]1C[C@@H]2O [Paclitaxel] (first compound max 1 µM, 7x7, partner max 3 µM) | 0.0901 | 0.0333 | -0.0369 | 0.0793 | 0.0018 | 0.0738 | 0.0132 | 0.023 | 0.0232 | 0.092 | 0.0166 | 0.0599 | 0.0404 | 0.0036 | -0.121 | 0.171 | 0.0954 | 0.0069 | 0.0232 | 0.0318 |
| CN(CCO)CC[C@H](CSc1ccccc1)Nc1ccc(S(=O)(=O)NC(=O)c2ccc(N3CCC([C@@H](O)c4ccccc4-c4ccc(Cl)cc4)CC3)cc2)cc1S(=O)(=O)C(F)(F)F [AZD4320] + CS(=O)(=O)CCNCc1ccc(-c2ccc3ncnc(Nc4ccc(OCc5cccc(F)c5)c(Cl)c4)c3c2)o1 [Lapatinib] (first compound max 1 µM, 7x7, partner max 10 µM) | -0.0121 | 0.0902 | 0.159 | 0.0202 | 0.0503 | -0.0829 | 0.0721 | 0.0503 | 0.106 | -0.0042 | -0.0405 | 0.023 | -0.0026 | 0.0444 | -0.0888 | 0.0411 | 0.0281 | 0.0057 | -0.0108 | 0.0876 |
| CN(CCO)CC[C@H](CSc1ccccc1)Nc1ccc(S(=O)(=O)NC(=O)c2ccc(N3CCC([C@@H](O)c4ccccc4-c4ccc(Cl)cc4)CC3)cc2)cc1S(=O)(=O)C(F)(F)F [AZD4320] + Nc1ccn([C@@H]2O[C@H](CO)[C@@H](O)C2(F)F)c(=O)n1 [Gemcitabine] (first compound max 1 µM, 7x7, partner max 0.3 µM) | -0.0164 | 0.0268 | 0.0333 | -0.0271 | -0.0044 | -0.0422 | 0.0126 | 0.0089 | 0.0028 | -0.08 | -0.0027 | -0.0203 | -0.0356 | 0.0487 | -0.0393 | -0.0216 | 0.0054 | -0.0867 | 0.016 | 0.083 |
| Cc1c2c(nn1C)CSCc1cc(n(C)n1)CSc1cc(c3ccccc3c1)OCCCc1c(C(=O)O)n(C)c3c-2c(Cl)ccc13 [AZD5991] + CC(=O)O[C@H]1C(=O)[C@@]2(C)[C@H]([C@H](OC(=O)c3ccccc3)[C@]3(O)C[C@H](OC(=O)[C@H](O)[C@@H](NC(=O)c4ccccc4)c4ccccc4)C(C)=C1C3(C)C)[C@]1(OC(C)=O)CO[C@@H]1C[C@@H]2O [Paclitaxel] (first compound max 1 µM, 7x7, partner max 3 µM) | -0.0775 | -0.0424 | -0.0043 | 0.0336 | -0.0913 | -0.0012 | -0.0011 | 0.0072 | 0.0231 | 0.0107 | 0.0098 | 0.0181 | 0.0053 | -0.0941 | -0.0238 | -0.0363 | -0.0041 | 0.0078 | -0.0256 | 0.0165 |
| Cc1c2c(nn1C)CSCc1cc(n(C)n1)CSc1cc(c3ccccc3c1)OCCCc1c(C(=O)O)n(C)c3c-2c(Cl)ccc13 [AZD5991] + CS(=O)(=O)CCNCc1ccc(-c2ccc3ncnc(Nc4ccc(OCc5cccc(F)c5)c(Cl)c4)c3c2)o1 [Lapatinib] (first compound max 1 µM, 7x7, partner max 10 µM) | -0.0174 | -0.0394 | 0.0045 | 0.0137 | -0.137 | 0.0081 | -0.038 | -0.0145 | 0.0371 | -0.011 | -0.045 | -0.0485 | 0.0226 | -0.0118 | -0.146 | -0.012 | 0.0014 | -0.0305 | 0.0072 | -0.019 |
| Cc1c2c(nn1C)CSCc1cc(n(C)n1)CSc1cc(c3ccccc3c1)OCCCc1c(C(=O)O)n(C)c3c-2c(Cl)ccc13 [AZD5991] + Nc1ccn([C@@H]2O[C@H](CO)[C@@H](O)C2(F)F)c(=O)n1 [Gemcitabine] (first compound max 1 µM, 7x7, partner max 0.3 µM) | -0.0708 | 0.0008 | 0.0181 | 0.0164 | -0.0324 | 0.008 | -0.0103 | 0.0109 | -0.0823 | -0.0215 | -0.0486 | 0.0182 | 0.0133 | -0.024 | -0.0655 | -0.0363 | -0.0682 | 0.006 | -0.0333 | 0.0117 |
| C[C@@H]1COCCN1c1cc(C2([S@](C)(=N)=O)CC2)nc(-c2ccnc3[nH]ccc23)n1 [AZD6738] + C1CC(C1)(C(=O)[O-])C(=O)[O-].N.N.[Pt+2] [Carboplatin] (first compound max 10 µM, 7x7, partner max 10 µM) | -0.0615 | -0.0444 | 0.0138 | -0.0443 | -0.0465 | -0.0517 | 0.0175 | -0.051 | -0.0369 | -0.0073 | -0.0278 | -0.0554 | -0.0835 | -0.0402 | -0.104 | -0.0617 | -0.0806 | -0.0265 | -0.0326 | -0.04 |
| C[C@@H]1COCCN1c1cc(C2([S@](C)(=N)=O)CC2)nc(-c2ccnc3[nH]ccc23)n1 [AZD6738] + Nc1ccn([C@@H]2O[C@H](CO)[C@@H](O)C2(F)F)c(=O)n1 [Gemcitabine] (first compound max 10 µM, 7x7, partner max 0.3 µM) | 0.0982 | -0.012 | 0.0746 | 0.0156 | -0.108 | -0.0579 | 0.0497 | 0.0289 | -0.0138 | 0.0393 | 0.0209 | -0.0185 | 0.0251 | -0.0064 | -0.0824 | 0.0731 | 0.0028 | -0.0049 | 0.0434 | 0.128 |
| Cc1cc2ncnn2cc1Nc1ncc2c(n1)n(C1CCOCC1)c(=O)n2C [AZD7648] + COc1cc([C@@H]2c3cc4c(cc3[C@@H](O[C@@H]3O[C@@H]5CO[C@@H](C)O[C@H]5[C@H](O)[C@H]3O)[C@H]3COC(=O)[C@H]23)OCO4)cc(OC)c1O [Etoposide] (first compound max 10 µM, 7x7, partner max 10 µM) | 0.0299 | 0.121 | 0.0139 | 0.0309 | -0.0395 | 0.184 | 0.158 | -0.0072 | 0.0243 | 0.0384 | 0.0771 | -0.0401 | 0.136 | 0.127 | -0.0126 | -0.0236 | 0.0501 | 0.0582 | 0.0079 | 0.0713 |
| C[C@@H](Nc1cc(F)cc(F)c1)c1cc(C(=O)N(C)C)cc2c(=O)cc(N3CCOCC3)oc12 [AZD8186] + C1CN(CCC1(C(=O)N[C@@H](CCO)C2=CC=C(C=C2)Cl)N)C3=NC=NC4=C3C=CN4 [AZD5363] (first compound max 10 µM, 7x7, partner max 10 µM) | -0.0448 | -0.0305 | -0.0913 | 0.0062 | -0.0608 | -0.0137 | -0.023 | -0.0756 | -0.0719 | -0.0335 | -0.0065 | -0.0239 | 0.0225 | -0.0203 | -0.038 | -0.0505 | -0.0543 | -0.0271 | -0.0245 | 0.0061 |
| C[C@@H](Nc1cc(F)cc(F)c1)c1cc(C(=O)N(C)C)cc2c(=O)cc(N3CCOCC3)oc12 [AZD8186] + CC(=O)c1c(C)c2cnc(Nc3ccc(N4CCNCC4)cn3)nc2n(C2CCCC2)c1=O [Palbociclib] (first compound max 10 µM, 7x7, partner max 10 µM) | -0.0328 | 0.0009 | -0.0692 | -0.0077 | -0.0615 | 0.073 | 0.0638 | 0.0338 | -0.0439 | -0.0328 | 0.0298 | 0.0614 | 0.0583 | 0.0294 | -0.0476 | -0.0424 | -0.0495 | 0.0271 | -0.023 | 0.0023 |
| N#Cc1cnc(Nc2cc(NC[C@H]3CNCCO3)c(C(F)(F)F)cn2)cn1 [SRA737] + O=c1[nH]cc(F)c(=O)[nH]1 [5-Fluorouracil] (first compound max 10 µM, 7x7, partner max 20 µM) | -0.0501 | -0.0626 | 0.0009 | -0.0009 |  | 0.0243 | 0.0356 | 0.006 | -0.0569 |  | 0.0184 | 0.0112 | 0.0471 | -0.0187 | -0.0689 | -0.0423 | -0.0279 | -0.0252 | -0.0443 | 0.0756 |
